Experimental data from patent US20190307732A1, “METHODS OF TREATING MITOCHONDRIAL AND METABOLIC DISORDERS” (Abraxis Bioscience, LLC, priority 2016, published 2019).

Tested on: S6 phosphorylation
Experiment: Inhibition of S6 phosphorylation (pS6) in IMR90 fibroblast lysates
Assay type: cell-based
Settings: Homo sapiens, IMR-90; IMR90 fibroblasts; dose of 1 ng/mL; FIG. 2
Method: IMR90 fibroblasts were administered varying doses of nab-sirolimus or rapamycin. Cell lysates were used to determine inhibition of S6 phosphorylation. Presence of vimentin. S6, and phosphorylated S6 (pS6) was measured.

CO[C@H]1C[C@@H]2CC[C@@H](C)[C@@](O)(O2)C(=O)C(=O)N2CCCC[C@H]2C(=O)O[C@H]([C@H](C)C[C@@H]2CC[C@@H](O)[C@H](OC)C2)CC(=O)[C@H](C)/C=C(\C)[C@@H](O)[C@@H](OC)C(=O)[C@H](C)C[C@H](C)/C=C/C=C/C=C/1C [rapamycin]
inhibition at 0.001 µg/mL: 100%
